Test results as given in US9981956B2, “Small molecule inhibitors of fibrosis” (THE CALIFORNIA INSTITUTE FOR BIOMEDICAL RESEARCH, priority 2013, dated 2018).

Tested on: bleomycin-induced lung fibrosis
Assay: Bleomycin-induced lung fibrosis model
Assay type: in vivo, mouse
Conditions: 10 mg/kg SID versus AM-152 (30 mg/kg BID) and pirfenidone (400 mg/kg BID)
Description: These in vivo assays took 6-8 weeks to complete (including full histological analysis). Typical experiments consisted of groups of 6-8 animals treated with itraconazole (2-4 doses), 1 or 2 itraconazole analogues (2-4 doses), vehicle, and benchmark treatments (pirfenidone and AM-152). AM-152 (Amira Pharmaceuticals) is an LPA1 (Lysophosphatidic acid 1) receptor antagonist. This target has been described as relevant to exacerbation of IPF systems in a mouse bleomycin model (British Journal of Pharmacology (2010), 160, 1699-1713). AM-152 is an advanced compound on this target as has been previously described in more detail in WO 2012/078805 and was used as a positive control and comparator to the compound disclosed in this application.
Nine-week old B6 male mice (Taconic farms) were surgically implanted with osmotic pumps delivering 25 mg/kg bleomycin for seven days. 17 days after surgery mice were treated with drug for 2 weeks. Drug treatments were administered as described in study design (FIG. 14). Previously described anti-fibrotic drugs AM-152 and pirfenidone were used as positive control drugs. […] Stained lung sections were analyzed according to a modified Ashcroft scoring system (FIG. 16) and using an unbiased automated image analysis method. […] Total stained area was then determined by using the area measurement function within ImageJ.

Q: With CCC(C)n1ncn(-c2ccc(N3CCN(c4ccc(OC[C@@H]5CO[C@@](Cn6nccn6)(c6ccccc6)O5)cc4)CC3)cc2)c1=O (stereo partly shown) [Compound 42] as the compound, how does the “Lung fibrosis disease severity compared to control compounds” value read?
A: The value was “decreased lung fibrosis disease severity with efficacy that was as good or better”.
